Measurements reported in patent US9120805B2, “Substituted pyrrolo[1,2-A]pyrazin-1-ones and pyrazolo[1,5-A]pyrazin-4-ones as inhibitors of tankyrase and poly(ADP-ribose)polymerase activity” (Merck Patent GmbH, priority 2012, dated 2015).

Columns and labels:
Format in all cases: biochemical
[1] = biological target: T1, GST-tagged Tankyrase-1 (1023-1327 aa) (Homo sapiens, UniProt O95271); assay: Tankyrase 1 autoparsylation assay (HTRF enzyme assay)
T1 construct: GST-tagged Tankyrase-1 (1023-1327 aa)
T1 sequence (O95271 1023-1327): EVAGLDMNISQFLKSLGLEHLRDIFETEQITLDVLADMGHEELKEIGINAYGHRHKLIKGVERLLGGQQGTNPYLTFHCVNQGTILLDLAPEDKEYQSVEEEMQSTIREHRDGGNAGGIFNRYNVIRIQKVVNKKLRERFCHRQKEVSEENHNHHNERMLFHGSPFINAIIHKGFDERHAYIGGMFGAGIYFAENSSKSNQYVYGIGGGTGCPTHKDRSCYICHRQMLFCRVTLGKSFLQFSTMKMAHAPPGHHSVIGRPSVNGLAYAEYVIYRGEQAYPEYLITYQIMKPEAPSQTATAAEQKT
Procedure, shortened: (§1)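 ~250 nM GST-tagged enzyme with 5 μM biotin-NAD in HEPES/Mg/DTT buffer pH 7.7, 10 compound concentrations, 90 min at 30 °C; EDTA stop. Eu-anti-GST/streptavidin-Xlent HTRF read (665/615 ratio) after 1 h RT. IC50 relative to inhibitor-free reaction and 5 μM XAV-939 as zero.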

[2] = biological target: T2, GST-tagged Tankyrase-2 (873-1166 aa) (Homo sapiens, UniProt Q9H2K2); assay: Tankyrase 2 autoparsylation assay (HTRF enzyme assay)
T2 construct: GST-tagged Tankyrase-2 (873-1166 aa)
T2 sequence (Q9H2K2 873-1166): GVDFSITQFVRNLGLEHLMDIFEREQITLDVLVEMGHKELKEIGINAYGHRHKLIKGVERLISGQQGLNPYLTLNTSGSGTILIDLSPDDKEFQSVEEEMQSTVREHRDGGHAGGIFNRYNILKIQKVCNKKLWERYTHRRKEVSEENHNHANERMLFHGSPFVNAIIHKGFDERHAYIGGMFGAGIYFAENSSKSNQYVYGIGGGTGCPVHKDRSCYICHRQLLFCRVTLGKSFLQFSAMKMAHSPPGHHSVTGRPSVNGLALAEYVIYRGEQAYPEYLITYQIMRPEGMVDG
Procedure, shortened: as §1

[3] = biological target: T3, GST-tagged Tnks-1 (1023-1327 aa) (Homo sapiens, UniProt O95271); assay: TNKS1 activity ELISA (autoparsylation assay)
T3 construct: GST-tagged Tnks-1 (1023-1327 aa, prepared in-house); made in house
T3 sequence (O95271 1023-1327): as the sequence (O95271 1023-1327) above
Experimental: Description of the TNKS1 and TNKS2 ELISA Assay
Biochemical Activity Testing of TNKS 1 and 2: Activity ELISA (Autoparsylation Assay)
For analysis of autoparsylation activity of TNKS 1 and 2 an activity ELISA is performed: In the first step GST tagged TNKS is captured on a Glutathione coated plate. Then the activity assay with biotinylated NAD is performed in the absence/presence of the compounds. During the enzymatic reaction GST tagged TNKS transfers biotinylated ADP-ribose to itself from biotinylated NAD as co-substrate. For the detection streptavidin-HRP conjugate is added that binds to the biotinylated TNKS and is thereby captured to the plates. The amount of biotinylated resp. autoparsylated TNKS is detected with a luminescence substrate for HRP. The level of the luminescence signal correlates directly with the amount of autoparsylated TNKS and therefore with activity of TNKS.
The activity ELISA is performed in 384 well Glutathione coated microtiter plates (Express capture Glutathione coated plate, Biocat, Heidelberg, Germany). The plates are pre-equilibrated with PBS. Then the plates are incubated with 50 μl 20 ng/well GST-tagged Tnks-1 (1023-1327 aa, prepared in-house), respectively GST-tagged Tnks-2 (873-1166 aa, prepared in-house) in assay buffer (50 mM HEPES, 4 mM Mg-chloride, 0.05% Pluronic F-68, 2 mM DTT, pH 7.7) overnight at 4° C. The plates are washed 3 times with PBS-Tween-20. The wells are blocked by incubation at room temperature for 20 minutes with 50 μl blocking buffer (PBS, 0.05% Tween-20, 0.5% BSA). Afterwards the plates are washed 3 times with PBS-Tween-20. The enzymatic reaction is performed in 50 μl reaction solution (50 mM HEPES, 4 mM Mg-chloride, 0.05% Pluronic F-68, 1.4 mM DTT, 0.5% DMSO, pH 7.7) with 10 μM bio-NAD (Biolog, Life science Inst., Bremen, Germany) as co-substrate in the absence or presence of the test compound (10 dilution concentrations) for 1 hour at 30° C. The reaction is stopped by 3 times washing with PBS-Tween-20. For the detection 50 μl of 20 ng/μl Streptavidin, HRP conjugate (MoBiTec, Göttingen, Germany) in PBS/0.05% Tween-20/0.01% BSA are added and the plates are incubated for 30 minutes at room temperature. After three times washing with PBS-Tween-20 50 μl of SuperSignal ELISA Femto Maximum sensitivity substrate solution (ThermoFisherScientific (Pierce), Bonn, Germany) are added. Following a 1 minute incubation at room temperature luminescence signals are measured with an Envision multimode reader (Perkin Elmer LAS Germany GmbH) at 700 nm. The full value used is the inhibitor-free reaction. The pharmacological zero value used is XAV-939 (Tocris) in a final concentration of 5 μM. The inhibitory values (1050) are determined using either the program Symyx Assay Explorer® or Condosseo® from GeneData.

SMILES | IC50 [1] [nM] | IC50 [2] [nM] | IC50 [3] [nM]
CC(C)(C)c1ccc(-c2cn3cccc3c(=O)[nH]2)cc1 [Compound A11, 3-(4-tert-butyl-phenyl)-2H-pyrrolo[1,2-a]pyrazin-1-one] | < 300 | < 300 | < 300
Cc1ccc(-c2cn3cccc3c(=O)[nH]2)cc1 [Compound A12, 3-p-tolyl-2H-pyrrolo[1,2-a]pyrazin-1-one] | < 300 | 300 to 3000 | < 300
Cn1cc(-c2ccc(-c3cn4cccc4c(=O)[nH]3)cc2)cn1 [Compound A25, 3-[4-(1-methyl-1H-pyrazol-4-yl)-phenyl]-2H-pyrrolo[1,2-a]pyrazin-1-one] | < 300 | < 300 | < 300
CC(C)(O)c1ccc(-c2cn3cccc3c(=O)[nH]2)cc1 [Compound A29, 3-[4-(1-hydroxy-1-methyl-ethyl)-phenyl]-2H-pyrrolo[1,2-a]pyrazin-1-one] | < 300 | < 300 | < 300
CC(C)(C)c1ccc(-c2cn3cc(F)cc3c(=O)[nH]2)cc1 [Compound A35, 3-(4-tert-butyl-phenyl)-7-fluoro-2H-pyrrolo[1,2-a]pyrazin-1-one] | < 300 | < 300 | < 300
Cc1cc2c(=O)[nH]c(-c3ccc(C(C)(C)O)cc3)cn2n1 [Compound A46, 6-[4-(1-hydroxy-1-methyl-ethyl)phenyl]-2-methyl-5H-pyrazolo[1,5-a]pyrazin-4-one] | < 300 | 300 to 3000 | < 300
Cc1cc2c(=O)[nH]c(-c3ccc(C(C)(C)O)cc3)cn2c1 [Compound A56, 3-[4-(1-hydroxy-1-methyl-ethyl)-phenyl]-7-methyl-2H-pyrrolo[1,2-a]pyrazin-1-one] | < 300 | 300 to 3000 | < 300
CC(C)(O)c1ccc(-c2cn3cc(F)cc3c(=O)[nH]2)cc1 [Compound A59, 7-fluoro-3-[4-(1-hydroxy-1-methyl-ethyl)-phenyl]-2H-pyrrolo[1,2-a]pyrazin-1-one] | < 300 | < 300 | < 300
CC(C)(O)c1ccc(-c2cn3cc(Cl)cc3c(=O)[nH]2)cc1 [Compound A60, 7-chloro-3-[4-(1-hydroxy-1-methyl-ethyl)-phenyl]-2H-pyrrolo[1,2-a]pyrazin-1-one] | < 300 | < 300 | < 300
CCC(O)(CC)c1ccc(-c2cn3cc(F)cc3c(=O)[nH]2)cc1 [Compound A61, 3-[4-(1-ethyl-1-hydroxy-propyl)-phenyl]-7-fluoro-2H-pyrrolo[1,2-a]pyrazin-1-one] | < 300 | < 300 | < 300
CC(C)(F)c1ccc(-c2cn3cc(F)cc3c(=O)[nH]2)cc1 [Compound A63, 7-fluoro-3-[4-(1-fluoro-1-methyl-ethyl)-phenyl]-2H-pyrrolo[1,2-a]pyrazin-1-one] | < 300 | 300 to 3000 | < 300
CC(C)(OCCO)c1ccc(-c2cn3cc(F)cc3c(=O)[nH]2)cc1 [Compound A70, 7-fluoro-3-{4-[1-(2-hydroxy-ethoxy)-1-methyl-ethyl]-phenyl}-2H-pyrrolo[1,2-a]pyrazin-1-one] | < 300 | < 300 | < 300
COCCOC(C)(C)c1ccc(-c2cn3cc(F)cc3c(=O)[nH]2)cc1 [Compound A71, 7-fluoro-3-{4-[1-(2-methoxy-ethoxy)-1-methyl-ethyl]-phenyl}-2H-pyrrolo[1,2-a]pyrazin-1-one] | < 300 | 300 to 3000 | < 300
CC(C)(N)c1ccc(-c2cn3cc(F)cc3c(=O)[nH]2)cc1 [Compound A72, 3-[4-(1-amino-1-methyl-ethyl)-phenyl]-7-fluoro-2H-pyrrolo[1,2-a]pyrazin-1-one] | < 300 | < 300 | < 300
CC1(c2ccc(-c3cn4cc(F)cc4c(=O)[nH]3)cc2)CCCO1 (stereo not drawn) [Compound A73, 7-fluoro-3-[4-(2-methyl-tetrahydro-furan-2-yl)-phenyl]-2H-pyrrolo[1,2-a]pyrazin-1-one] | < 300 | < 300 | < 300
O=c1[nH]c(-c2ccc(C3CCNCC3)cc2)cn2cccc12 [Compound A75, 3-(4-piperidin-4-yl-phenyl)-2H-pyrrolo[1,2-a]pyrazin-1-one] | < 300 | < 300 | < 300
O=c1[nH]c(-c2ccc(C3CCNC3)cc2)cn2cccc12 (stereo not drawn) [Compound A76, 3-(4-Pyrrolidin-3-yl-phenyl)-2H-pyrrolo[1,2-a]pyrazin-1-one] | < 300 | 300 to 3000 | < 300
CN1CCC(c2ccc(-c3cn4cccc4c(=O)[nH]3)cc2)CC1 [Compound A79, 3-[4-(1-methyl-piperidin-4-yl)-phenyl]-2H-pyrrolo[1,2-a]pyrazin-1-one] | < 300 | < 300 | < 300
CN1CCC(c2ccc(-c3cn4cccc4c(=O)[nH]3)cc2)C1 (stereo not drawn) [Compound A80, 3-[4-(1-methyl-pyrrolidin-3-yl)-phenyl]-2H-pyrrolo[1,2-a]pyrazin-1-one] | 300 to 3000 | 300 to 3000 | < 300
O=c1[nH]c(-c2ccc(C3(O)CCC3)cc2)cn2cccc12 [Compound A111] | < 300 | < 300 | < 300
